According to PMC7288112 (Molecules, 2020):

Target: Rv1466 (Mycobacterium tuberculosis, UniProt O53157)
Experiment: biochemical
Format: binding

Sequence of Rv1466 (O53157 entry or part of it): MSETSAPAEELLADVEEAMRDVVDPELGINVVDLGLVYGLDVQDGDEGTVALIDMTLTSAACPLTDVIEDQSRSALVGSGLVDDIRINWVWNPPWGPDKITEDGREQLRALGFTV

Structure (SMILES): O=C1C=C[C@@H]2O[C@H](c3ccccc3)[C@@H](O)[C@@H]2O1 [altholactone]
- Kd: 42 ± 6.1 µM
